Laboratory results from patent publication US20190079079A1, “3-D TISSUE CULTURE BASED METHOD TO ASSESS MITOCHONDRIAL IMPAIRMENT” (INSPHERO AG, priority 2016, published 2019).
Counter-ions that a name gives are not always drawn. Like-named read-outs stand apart in the source and are kept apart here.

Tests used:
[1] = test system: 3D primary human hepatocytes microtissues (IPHH_02)
Procedure: (§1) B. Coating of Seahorse Spheroid plates • 20 uL of Poly-D-Lysine (100 ug/mL diluted in cell culture grade water) were added to each well of the Seahorse Spheroid plate (Incubation for 20min @ RT) • After coating, the Seahorse Spheroid plate was washed with 200 uL of sterile water and wash was removed (Washing step repeated once) • Seahorse Spheroid plate has been air dried for a few minutes
(§2) D. Seahorse XF Analyzer Run • While cell incubation fill up the ports of the cartridge according to the Seahorse manufacturer's protocol • Setup groups and parameters for the measurement (basal: 7 cycles, oligomycin 2 uM: 6 cycles, FCCP 0.5 uM: 3 cycles, FCCP 1 uM: 3 cycles, Rot/AA 0.5 uM: 9 cycles) • Start the measurement
(§3) DILI classification: Drug-induced liver injury according to Gustafsson et al, 2014 (N=negative, P=positive). CMax=concentration of candidate compound used in Gustafsson et al, 2014; CTop=concentration of candidate compound used herein; IC50CV/Cyt determined by the CellTiter-Glo Luminescent Cell Viability Assay (Promega, Madison, US) as disclosed herein, IC50MTSRR determined as inhibition on spare respiratory capacity (SPARE), as disclosed herein; MOS: Margin of safety; High Mito-toxic risk: IC5O_MTSRR<0.75×IC5O_CV/CYT; Low Mito-toxic risk: IC5O_MTSRR<IC5O_CV/CYT and IC5O_MTSRR≥0.75×IC5O_CV/CYT; No Mito-toxic risk: IC5O_MTSRR≥IC5O_CV/CYT

[2] = categorized by Gustafsson et al; cited from earlier work
[3] = test system: 3D primary human hepatocytes microtissues (IPHH_02); experiment: Seahorse XF Analyzer measurement of spare respiratory capacity (microtissue-specific respiration rate, MTSRR) after 48 h compound exposure; conditions: High: IC50_MTSRR<0.75×IC50_CV/CYT; Low: IC50_MTSRR<IC50_CV/CYT and ≥0.75×IC50_CV/CYT; No: IC50_MTSRR≥IC50_CV/CYT (CV/CYT by CellTiter-Glo)
Procedure: as §1, §2, §3

Question: Which Mitochondrial toxicity risk [1] does the source give for `O=c1[nH]c(=O)n([C@@H]2O[C@H](CO)[C@@H](O)[C@@H]2F)cc1I` [Fialuridine] here?
Answer: not have specific mitochondrial toxicity

Question: What about the DILI classification [2] of the same compound?
Answer: liver toxic

Question: With `CN(C)C(=N)N=C(N)N` [Metformin HCl] as the compound, how does the DILI classification [2] read?
Answer: not liver toxic

Question: What about the Mitochondrial toxicity risk [3] of the same compound?
Answer: low mitochondrial toxicity
